Measurements reported in ChEMBL document CHEMBL3885861, “Open TG-GATES”.

Organism: Rattus norvegicus
Assay: Open TG-GATES - Regimen: Daily Repeat
Type: toxicity, organism-based, Sprague-Dawley
Parameters: regimen Daily Repeat, gender Male, age 6 weeks
Settings: in vivo, po, 300 mg/kg, route gavage, dose level Middle; for APTT / Bas / Eos / Fbg / Hb / Ht / Lym / MCH / MCHC / MCV / Mono / Neu / PT / Plat / RBC / Ret / WBC: tissue Blood; for KIDNEY_L / KIDNEY_R / KIDNEY_TOTAL: tissue Kidney; for LIVER: tissue Liver; for A/G / ALP / ALT / AST / BUN / CRE / Ca / Cl / DBIL / GLC / IP / K / LDH / Na / PL / RALB / TBIL / TC / TG / TP / gamma-GTP: tissue Plasma

O=C(OC[C@H]1O[C@@H](OC(=O)c2cc(O)c(O)c(OC(=O)c3cc(O)c(O)c(O)c3)c2)[C@H](OC(=O)c2cc(O)c(O)c(OC(=O)c3cc(O)c(O)c(O)c3)c2)[C@@H](OC(=O)c2cc(O)c(O)c(OC(=O)c3cc(O)c(O)c(O)c3)c2)[C@@H]1OC(=O)c1cc(O)c(O)c(OC(=O)c2cc(O)c(O)c(O)c2)c1)c1cc(O)c(O)c(OC(=O)c2cc(O)c(O)c(O)c2)c1 [TANNIC ACID]
TERMINAL_BW (72 h, time 3 day): 215.8 g | APTT (72 h, time 3 day): 16.1 s | Bas (72 h, time 3 day): 0% | Eos (72 h, time 3 day): 1% | Fbg (72 h, time 3 day): 240.8 mg/dL | Hb (72 h, time 3 day): 13.1 g/dL | Ht (72 h, time 3 day): 39.3% | Lym (72 h, time 3 day): 76.8% | MCH (72 h, time 3 day): 21.6 pg | MCHC (72 h, time 3 day): 33.3% | MCV (72 h, time 3 day): 64.9 fL | Mono (72 h, time 3 day): 10% | Neu (72 h, time 3 day): 12.4% | PT (72 h, time 3 day): 11.5 s | Plat (72 h, time 3 day): 118.8 x10_4/uL | RBC (72 h, time 3 day): 606.2 x10_4/ul | Ret (72 h, time 3 day): 7.7% | WBC (72 h, time 3 day): 77.2 x10_2/uL | KIDNEY_L (72 h, time 3 day): 1 g | KIDNEY_R (72 h, time 3 day): 1 g | KIDNEY_TOTAL (72 h, time 3 day): 1.9 g | LIVER (72 h, time 3 day): 10.9 g | A/G (72 h, time 3 day): 2.1 | ALP (72 h, time 3 day): 808.4 IU/L | ALT (72 h, time 3 day): 35 IU/L | AST (72 h, time 3 day): 62.8 IU/L | BUN (72 h, time 3 day): 17.8 mg/dL | CRE (72 h, time 3 day): 0.5 mg/dL | Ca (72 h, time 3 day): 10.9 mg/dL | Cl (72 h, time 3 day): 103.4 meq/L | DBIL (72 h, time 3 day): 0.004 mg/dL | GLC (72 h, time 3 day): 207.6 mg/dL | IP (72 h, time 3 day): 8.7 mg/dL | K (72 h, time 3 day): 4.6 meq/L | LDH (72 h, time 3 day): 83 IU/L | Na (72 h, time 3 day): 139 meq/L | PL (72 h, time 3 day): 159.2 mg/dL | RALB (72 h, time 3 day): 3.8 g/dL | TBIL (72 h, time 3 day): 0.3 mg/dL | TC (72 h, time 3 day): 84.6 mg/dL | TG (72 h, time 3 day): 109.2 mg/dL | TP (72 h, time 3 day): 5.6 g/dL | gamma-GTP (72 h, time 3 day): 0.6 IU/L | TERMINAL_BW ([…], time 7 day): 250.4 g | TERMINAL_BW ([…], time 14 day): 315.8 g | TERMINAL_BW ([…], time 28 day): 397.8 g | APTT ([…], time 7 day): 17.1 s | Bas ([…], time 7 day): 0% | Eos ([…], time 7 day): 1.4% | Fbg ([…], time 7 day): 226 mg/dL | Hb ([…], time 7 day): 13.4 g/dL | Ht ([…], time 7 day): 40.6% | Lym ([…], time 7 day): 81.2% | MCH ([…], time 7 day): 21.3 pg | MCHC ([…], time 7 day): 33.1% | MCV ([…], time 7 day): 64.2 fL | Mono ([…], time 7 day): 4.8% | Neu ([…], time 7 day): 12.8% | PT ([…], time 7 day): 10.9 s | Plat ([…], time 7 day): 123.2 x10_4/uL | RBC ([…], time 7 day): 631.8 x10_4/ul | Ret ([…], time 7 day): 6.5% | WBC ([…], time 7 day): 103.7 x10_2/uL | APTT ([…], time 14 day): 16.7 s | Bas ([…], time 14 day): 0% | Eos ([…], time 14 day): 1.2% | Fbg ([…], time 14 day): 261.2 mg/dL | Hb ([…], time 14 day): 13.7 g/dL | Ht ([…], time 14 day): 41.1% | Lym ([…], time 14 day): 75.4% | MCH ([…], time 14 day): 20.7 pg | MCHC ([…], time 14 day): 33.4% | MCV ([…], time 14 day): 62.1 fL | Mono ([…], time 14 day): 8% | Neu ([…], time 14 day): 15.4% | PT ([…], time 14 day): 11.5 s | Plat ([…], time 14 day): 123.3 x10_4/uL | RBC ([…], time 14 day): 662.6 x10_4/ul | Ret ([…], time 14 day): 5.5% | WBC ([…], time 14 day): 101.9 x10_2/uL | APTT ([…], time 28 day): 16.6 s | Bas ([…], time 28 day): 0% | Eos ([…], time 28 day): 1.8% | Fbg ([…], time 28 day): 232.8 mg/dL | Hb ([…], time 28 day): 15 g/dL | Ht ([…], time 28 day): 45.2% | Lym ([…], time 28 day): 77.8% | MCH ([…], time 28 day): 19.6 pg | MCHC ([…], time 28 day): 33.2% | MCV ([…], time 28 day): 59.1 fL | Mono ([…], time 28 day): 6.2% | Neu ([…], time 28 day): 14.5% | PT ([…], time 28 day): 11.9 s | Plat ([…], time 28 day): 113.3 x10_4/uL | RBC ([…], time 28 day): 765.2 x10_4/ul | Ret ([…], time 28 day): 3% | WBC ([…], time 28 day): 112.2 x10_2/uL | KIDNEY_L ([…], time 7 day): 1 g | KIDNEY_R ([…], time 7 day): 1 g | KIDNEY_TOTAL ([…], time 7 day): 2.1 g | KIDNEY_L ([…], time 14 day): 1.4 g | KIDNEY_R ([…], time 14 day): 1.3 g | KIDNEY_TOTAL ([…], time 14 day): 2.7 g | KIDNEY_L ([…], time 28 day): 1.4 g | KIDNEY_R ([…], time 28 day): 1.4 g | KIDNEY_TOTAL ([…], time 28 day): 2.9 g | LIVER ([…], time 7 day): 12.2 g | LIVER ([…], time 14 day): 14.7 g | LIVER ([…], time 28 day): 17 g | A/G ([…], time 7 day): 1.6 | ALP ([…], time 7 day): 926.8 IU/L | ALT ([…], time 7 day): 35.8 IU/L | AST ([…], time 7 day): 62.2 IU/L | BUN ([…], time 7 day): 19.4 mg/dL | CRE ([…], time 7 day): 0.6 mg/dL | Ca ([…], time 7 day): 10.8 mg/dL | Cl ([…], time 7 day): 103 meq/L | DBIL ([…], time 7 day): 0.016 mg/dL | GLC ([…], time 7 day): 205.6 mg/dL | IP ([…], time 7 day): 7.9 mg/dL | K ([…], time 7 day): 4.5 meq/L | LDH ([…], time 7 day): 98.6 IU/L | Na ([…], time 7 day): 137.4 meq/L | PL ([…], time 7 day): 154.6 mg/dL | RALB ([…], time 7 day): 3.7 g/dL | TBIL ([…], time 7 day): 0.4 mg/dL | TC ([…], time 7 day): 81.2 mg/dL | TG ([…], time 7 day): 119.6 mg/dL | TP ([…], time 7 day): 6.1 g/dL | gamma-GTP ([…], time 7 day): 1.6 IU/L | A/G ([…], time 14 day): 1.7 | ALP ([…], time 14 day): 702.2 IU/L | ALT ([…], time 14 day): 32.4 IU/L | AST ([…], time 14 day): 62.8 IU/L | BUN ([…], time 14 day): 20 mg/dL | CRE ([…], time 14 day): 0.6 mg/dL | Ca ([…], time 14 day): 10.7 mg/dL | Cl ([…], time 14 day): 103.4 meq/L | DBIL ([…], time 14 day): 0.008 mg/dL | GLC ([…], time 14 day): 202.4 mg/dL | IP ([…], time 14 day): 8.3 mg/dL | K ([…], time 14 day): 4.4 meq/L | LDH ([…], time 14 day): 83.4 IU/L | Na ([…], time 14 day): 139.8 meq/L | PL ([…], time 14 day): 151.6 mg/dL | RALB ([…], time 14 day): 3.8 g/dL | TBIL ([…], time 14 day): 0.3 mg/dL | TC ([…], time 14 day): 79.6 mg/dL | TG ([…], time 14 day): 116.8 mg/dL | TP ([…], time 14 day): 6 g/dL | gamma-GTP ([…], time 14 day): 1.4 IU/L | A/G ([…], time 28 day): 1.8 | ALP ([…], time 28 day): 534 IU/L | ALT ([…], time 28 day): 32.2 IU/L | AST ([…], time 28 day): 55.5 IU/L | BUN ([…], time 28 day): 20 mg/dL | CRE ([…], time 28 day): 0.6 mg/dL | Ca ([…], time 28 day): 11 mg/dL | Cl ([…], time 28 day): 105.8 meq/L | DBIL ([…], time 28 day): 0.01 mg/dL | GLC ([…], time 28 day): 201.8 mg/dL | IP ([…], time 28 day): 7.9 mg/dL | K ([…], time 28 day): 4.5 meq/L | LDH ([…], time 28 day): 83.2 IU/L | Na ([…], time 28 day): 139.5 meq/L | PL ([…], time 28 day): 141.8 mg/dL | RALB ([…], time 28 day): 4 g/dL | TBIL ([…], time 28 day): 0.3 mg/dL | TC ([…], time 28 day): 70.2 mg/dL | TG ([…], time 28 day): 133.8 mg/dL | TP ([…], time 28 day): 6.2 g/dL | gamma-GTP ([…], time 28 day): 0.5 IU/L
